According to the NIST ThermoML archive (doi:10.1016/j.jct.2016.08.033):
± gives the expanded uncertainty stated by the source.

Key:
[1] = 303.15 K; 101.33 kPa; Liquid; Vibrating tube method
[2] = refractive index (Na D-line) (dimensionless); settings: 303.15 K; 101.33 kPa; Liquid; Standard Abbe refractometry

| Compound | mass density [1] [kg/m3] | refractive index [2] |
| --- | --- | --- |
| CCCCCC[n+]1ccn(C)c1.O=S(=O)([N-]S(=O)(=O)C(F)(F)F)C(F)(F)F | 1367.17 ± 1.1 | 1.42851 ± 0.0011 |
| CCn1cc[n+](C)c1.O=S(=O)([N-]S(=O)(=O)C(F)(F)F)C(F)(F)F | 1513.74 ± 1.2 | 1.42162 ± 0.0011 |
| CCCC(=O)OC(C)CCC (configuration not stated) [1-methylbutyl butanoate] | 849.19 ± 1 | 1.40283 ± 0.0011 |
| CCCC(=O)O [butanoic acid] | 948.44 ± 1 | 1.39394 ± 0.0011 |
| CCCC(C)O (configuration not stated) [pentan-2-ol] | 800.09 ± 2.1 | 1.40216 ± 0.0021 |
| C=COC(=O)CCC [vinyl butanoate] | 888.65 ± 1 | 1.40494 ± 0.0011 |
